Starred links: 1 amine or outer side, 2 acyl side, 3 side chain; linkers in the order of their positions; H or OH if unused. Positions of bridges follow the written chain, without caps; N, C: chain ends. Residues, ends and D or L forms follow the SMILES beside them. Groups on a side chain read outwards from the residue. *: point of attachment. X3 = O=C(O)CCCCCCCCCCCCCCCCCCC(=O)N[C@@H](CCC(=O)NCOCCOCC(=O)NCOCCOCC(=O)*)C(=O)O; C18 diacid = O=C(O)CCCCCCCCCCCCCCCCC(=O)*; C17 diacid = O=C(O)CCCCCCCCCCCCCCCC(=O)*; C16 diacid = O=C(O)CCCCCCCCCCCCCCC(=O)*; γGlu = O=C(O)[C@H](CCC(=O)[*:2])N[*:1]

A short description of one data set: in vivo. On the set-up: species or system Sprague-Dawley rats. Conditions: male, Sprague-Dawley, rat, iv, 0.033 mg/kg. The gist of the method: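 Peptide plasma levels measured by UPLC-MS/MS (C18, product-ion monitoring) after protein precipitation or WCX SPE, calibrated in K2EDTA/protease-inhibitor rat plasma. Dosing in non-fasted male Sprague-Dawley rats (n=3): 0.033 mg/kg over 1 h by IV or SC infusion, or 0.3 mg/kg SC bolus; sampling up to 48 h.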
By Vd is commonly meant the apparent volume that relates the amount in the body to the concentration in plasma or blood. One may read the clearance as the volume of plasma or blood freed of the substance per unit of time. Higher therefore signals efficient removal. The term half-life denotes the time in which the quantity being followed falls by half. `CC[C@H](C)[C@H](NC(=O)[C@@H]1CCCN1C(=O)CNC(=O)[C@H](Cc1ccccc1)NC(=O)[C@H](CC(N)=O)NC(=O)[C@H](CC(N)=O)NC(=O)[C@H](CO)NC(=O)[C@H](CO)NC(=O)[C@H](CCCCN)NC(=O)[C@H](Cc1c[nH]cn1)NC(=O)[C@H](CCCCNC(=O)CC[C@H](NC(=O)CCCCCCCCCCCCCCCCC(=O)O)C(=O)O)NC(=O)[C@H](CCC(=O)O)NC(=O)[C@H](CC(N)=O)NC(=O)[C@H](C)NC(=O)[C@H](CC(C)C)NC(=O)[C@H](CCCNC(=N)N)NC(=O)[C@H](CCC(N)=O)NC(=O)[C@@H](NC(=O)[C@H](C)NC(=O)[C@@H]1CSSC[C@H](NC(=O)[C@@H](N)CO)C(=O)N[C@@H](CC(N)=O)C(=O)N[C@@H]([C@@H](C)O)C(=O)N[C@@H](CO)C(=O)N[C@@H]([C@@H](C)O)C(=O)N1)[C@@H](C)O)C(=O)N[C@@H](CC(C)C)C(=O)N1CCC[C@H]1C(=O)N1CCC[C@H]1C(=O)N[C@H](C(=O)N[C@@H](CCCCN)C(=O)N[C@H](C(=O)NCC(=O)N[C@@H](CO)C(=O)N[C@@H](CCC(=O)O)C(=O)N[C@H](C(=O)N[C@@H](Cc1ccc(O)cc1)C(N)=O)[C@@H](C)O)C(C)C)[C@@H](C)O` [Compound A76] (H-SCNTSTCATQRLANEK([γGlu-C18 diacid])HKSSNNFGPILPPTKVGSETY-NH2; disulfide 2-7; N-terminus assumed) showed a Vd of 0.176 L/kg, a clearance of 0.105 mL/min/kg and a half-life of 21.3 h.

In turn, `CC[C@H](C)[C@H](NC(=O)[C@@H]1CCCN1C(=O)CNC(=O)[C@H](Cc1ccccc1)NC(=O)[C@H](CC(N)=O)NC(=O)[C@H](CC(N)=O)NC(=O)[C@H](CO)NC(=O)[C@H](CO)NC(=O)[C@H](CCCCN)NC(=O)[C@H](Cc1c[nH]cn1)NC(=O)[C@H](CCCCNC(=O)CCCCCCCCCCCCCCCC(=O)O)NC(=O)[C@H](CCC(=O)O)NC(=O)[C@H](CC(N)=O)NC(=O)[C@H](C)NC(=O)[C@H](CC(C)C)NC(=O)[C@H](CCCNC(=N)N)NC(=O)[C@H](CCC(N)=O)NC(=O)[C@@H](NC(=O)[C@H](C)NC(=O)[C@@H]1CSSC[C@H](NC(=O)[C@@H](N)CO)C(=O)N[C@@H](CC(N)=O)C(=O)N[C@@H]([C@@H](C)O)C(=O)N[C@@H](CO)C(=O)N[C@@H]([C@@H](C)O)C(=O)N1)[C@@H](C)O)C(=O)N[C@@H](CC(C)C)C(=O)N1CCC[C@H]1C(=O)N1CCC[C@H]1C(=O)N[C@H](C(=O)N[C@@H](CCCCN)C(=O)N[C@H](C(=O)NCC(=O)N[C@@H](CO)C(=O)N[C@@H](CCC(=O)O)C(=O)N[C@H](C(=O)N[C@@H](Cc1ccc(O)cc1)C(N)=O)[C@@H](C)O)C(C)C)[C@@H](C)O` [Compound A79] (H-SCNTSTCATQRLANEK(C17 diacid)HKSSNNFGPILPPTKVGSETY-NH2; disulfide 2-7; N-terminus assumed) showed a Vd of 0.115 L/kg, a clearance of 0.162 mL/min/kg and a half-life of 7.8 h.

Staying with this data set, now noted: rat, iv, 0.033 mg/kg.
In the case of `CC[C@H](C)[C@H](NC(=O)[C@@H]1CCCN1C(=O)CNC(=O)[C@H](Cc1ccccc1)NC(=O)[C@H](CC(N)=O)NC(=O)[C@H](CC(N)=O)NC(=O)[C@H](CO)NC(=O)[C@H](CO)NC(=O)[C@H](CCCCN)NC(=O)[C@H](Cc1c[nH]cn1)NC(=O)[C@H](CC(C)C)NC(=O)[C@H](CCCCNC(=O)CC[C@H](NC(=O)CC[C@H](NC(=O)CCCCCCCCCCCCCCC(=O)O)C(=O)O)C(=O)O)NC(=O)[C@H](CC(N)=O)NC(=O)[C@H](C)NC(=O)[C@H](CC(C)C)NC(=O)[C@H](CCCNC(=N)N)NC(=O)[C@H](CCC(N)=O)NC(=O)[C@@H](NC(=O)[C@H](C)NC(=O)[C@@H]1CSSC[C@H](NC(=O)[C@@H](N)CO)C(=O)N[C@@H](CC(N)=O)C(=O)N[C@@H]([C@@H](C)O)C(=O)N[C@@H](CO)C(=O)N[C@@H]([C@@H](C)O)C(=O)N1)[C@@H](C)O)C(=O)N[C@@H](CC(C)C)C(=O)N1CCC[C@H]1C(=O)N1CCC[C@H]1C(=O)N[C@H](C(=O)N[C@@H](CCCCN)C(=O)N[C@H](C(=O)NCC(=O)N[C@@H](CO)C(=O)N[C@@H](CCC(=O)O)C(=O)N[C@H](C(=O)N[C@@H](Cc1ccc(O)cc1)C(N)=O)[C@@H](C)O)C(C)C)[C@@H](C)O` [Compound A82] (H-SCNTSTCATQRLANK([γGlu-γGlu-C16 diacid])LHKSSNNFGPILPPTKVGSETY-NH2; disulfide 2-7), the Vd is 0.152 L/kg, the clearance is 0.667 mL/min/kg and the half-life was 3.17 h.

For the compound `CC[C@H](C)[C@H](NC(=O)[C@@H]1CCCN1C(=O)CNC(=O)[C@H](Cc1ccccc1)NC(=O)[C@H](CC(N)=O)NC(=O)[C@H](CC(N)=O)NC(=O)[C@H](CO)NC(=O)[C@H](CO)NC(=O)[C@H](CCCCN)NC(=O)[C@H](Cc1c[nH]cn1)NC(=O)[C@H](CC(C)C)NC(=O)[C@H](CCCCNC(=O)CCCCCCCCCCCCCCCCC(=O)O)NC(=O)[C@H](CC(N)=O)NC(=O)[C@H](C)NC(=O)[C@H](CC(C)C)NC(=O)[C@H](CCCNC(=N)N)NC(=O)[C@H](CCC(N)=O)NC(=O)[C@@H](NC(=O)[C@H](C)NC(=O)[C@@H]1CSSC[C@H](NC(=O)[C@@H](N)CO)C(=O)N[C@@H](CC(N)=O)C(=O)N[C@@H]([C@@H](C)O)C(=O)N[C@@H](CO)C(=O)N[C@@H]([C@@H](C)O)C(=O)N1)[C@@H](C)O)C(=O)N[C@@H](CC(C)C)C(=O)N1CCC[C@H]1C(=O)N1CCC[C@H]1C(=O)N[C@H](C(=O)N[C@@H](CCCCN)C(=O)N[C@H](C(=O)NCC(=O)N[C@@H](CO)C(=O)N[C@@H](CCC(=O)O)C(=O)N[C@H](C(=O)N[C@@H](Cc1ccc(O)cc1)C(N)=O)[C@@H](C)O)C(C)C)[C@@H](C)O` [Compound A83] (H-SCNTSTCATQRLANK(C18 diacid)LHKSSNNFGPILPPTKVGSETY-NH2; disulfide 2-7), the Vd was determined as 0.123 L/kg, the clearance was 0.499 mL/min/kg and the half-life is 4.06 h.

For `CC[C@H](C)[C@H](NC(=O)[C@@H]1CCCN1C(=O)CNC(=O)[C@H](Cc1ccccc1)NC(=O)[C@H](CC(N)=O)NC(=O)[C@H](CC(N)=O)NC(=O)[C@H](CO)NC(=O)[C@H](CO)NC(=O)[C@H](CCCCN)NC(=O)[C@H](Cc1c[nH]cn1)NC(=O)[C@H](CC(C)C)NC(=O)[C@H](CCCCNC(=O)CC[C@H](NC(=O)CC[C@H](NC(=O)COCCOCNC(=O)COCCOCNC(=O)CC[C@H](NC(=O)CCCCCCCCCCCCCCCCCCC(=O)O)C(=O)O)C(=O)O)C(=O)O)NC(=O)[C@H](Cc1ccc(O)cc1)NC(=O)[C@H](C)NC(=O)[C@H](CC(C)C)NC(=O)[C@H](CCCNC(=N)N)NC(=O)[C@H](CCC(N)=O)NC(=O)[C@@H](NC(=O)[C@H](C)NC(=O)[C@@H]1CSSC[C@H](NC(=O)[C@@H](N)CO)C(=O)N[C@@H](CC(N)=O)C(=O)N[C@@H]([C@@H](C)O)C(=O)N[C@@H](CO)C(=O)N[C@@H]([C@@H](C)O)C(=O)N1)[C@@H](C)O)C(=O)N[C@@H](CC(C)C)C(=O)N1CCC[C@H]1C(=O)N1CCC[C@H]1C(=O)N[C@H](C(=O)N[C@@H](CCCCN)C(=O)N[C@H](C(=O)NCC(=O)N[C@@H](CO)C(=O)N[C@@H](CCC(=O)O)C(=O)N[C@H](C(=O)N[C@@H](Cc1ccc(O)cc1)C(N)=O)[C@@H](C)O)C(C)C)[C@@H](C)O` [Compound A85] (H-SCNTSTCATQRLAYK([γGlu-γGlu-X3])LHKSSNNFGPILPPTKVGSETY-NH2; disulfide 2-7; N-terminus assumed), the Vd was 0.146 L/kg, the clearance came out at 0.0496 mL/min/kg and the half-life is 36.7 h.

The compound `CC[C@H](C)[C@H](NC(=O)[C@@H]1CCCN1C(=O)CNC(=O)[C@H](Cc1ccccc1)NC(=O)[C@H](CC(N)=O)NC(=O)[C@H](CC(N)=O)NC(=O)[C@H](CO)NC(=O)[C@H](CO)NC(=O)[C@H](CCCCN)NC(=O)[C@H](Cc1c[nH]cn1)NC(=O)[C@H](CCCCNC(=O)CCCCCCCCCCCCCCC(=O)O)NC(=O)[C@H](CCC(=O)O)NC(=O)[C@H](CC(N)=O)NC(=O)[C@H](C)NC(=O)[C@H](CC(C)C)NC(=O)[C@H](CCCNC(=N)N)NC(=O)[C@H](CCC(N)=O)NC(=O)[C@@H](NC(=O)[C@H](C)NC(=O)[C@@H]1CSSC[C@H](NC(=O)[C@@H](N)CO)C(=O)N[C@@H](CC(N)=O)C(=O)N[C@@H]([C@@H](C)O)C(=O)N[C@@H](CO)C(=O)N[C@@H]([C@@H](C)O)C(=O)N1)[C@@H](C)O)C(=O)N[C@@H](CC(C)C)C(=O)N1CCC[C@H]1C(=O)N1CCC[C@H]1C(=O)N[C@H](C(=O)N[C@@H](CCCCN)C(=O)N[C@H](C(=O)NCC(=O)N[C@@H](CO)C(=O)N[C@@H](CCC(=O)O)C(=O)N[C@H](C(=O)N[C@@H](Cc1ccc(O)cc1)C(N)=O)[C@@H](C)O)C(C)C)[C@@H](C)O` [Compound A86] (H-SCNTSTCATQRLANEK(C16 diacid)HKSSNNFGPILPPTKVGSETY-NH2; disulfide 2-7) gave a volume of distribution (Vd) of 0.0936 L/kg, a clearance of 0.297 mL/min/kg and a half-life of 4.65 h.

Take `CC[C@H](C)[C@H](NC(=O)[C@@H]1CCCN1C(=O)CNC(=O)[C@H](Cc1ccccc1)NC(=O)[C@H](CC(N)=O)NC(=O)[C@H](CC(N)=O)NC(=O)[C@H](CO)NC(=O)[C@H](CO)NC(=O)[C@H](CCCCN)NC(=O)[C@H](Cc1c[nH]cn1)NC(=O)[C@H](CC(C)C)NC(=O)[C@H](CCCCNC(=O)CC[C@H](NC(=O)CC[C@H](NC(=O)CCCCCCCCCCCCCCCCC(=O)O)C(=O)O)C(=O)O)NC(=O)[C@H](CC(N)=O)NC(=O)[C@H](C)NC(=O)[C@H](CC(C)C)NC(=O)[C@H](CCCNC(=N)N)NC(=O)[C@H](CCC(N)=O)NC(=O)[C@@H](NC(=O)[C@H](C)NC(=O)[C@@H]1CSSC[C@H](NC(=O)[C@@H](N)CO)C(=O)N[C@@H](CC(N)=O)C(=O)N[C@@H]([C@@H](C)O)C(=O)N[C@@H](CO)C(=O)N[C@@H]([C@@H](C)O)C(=O)N1)[C@@H](C)O)C(=O)N[C@@H](CC(C)C)C(=O)N1CCC[C@H]1C(=O)N1CCC[C@H]1C(=O)N[C@H](C(=O)N[C@@H](CCCCN)C(=O)N[C@H](C(=O)NCC(=O)N[C@@H](CO)C(=O)N[C@@H](CCC(=O)O)C(=O)N[C@H](C(=O)N[C@@H](Cc1ccc(O)cc1)C(N)=O)[C@@H](C)O)C(C)C)[C@@H](C)O` [Compound A87] (H-SCNTSTCATQRLANK([γGlu-γGlu-C18 diacid])LHKSSNNFGPILPPTKVGSETY-NH2; disulfide 2-7): the Vd is 0.143 L/kg, the clearance was 0.108 mL/min/kg and the half-life is 17.7 h.

Source of the values: patent US12018059B2, “Human amylin analog polypeptides and methods of use” (Intarcia Therapeutics, Inc., priority 2018, dated 2024).
